In patent US11420958B2, “Aryl and heteroaryl substituted indole compounds” (BRISTOL-MYERS SQUIBB COMPANY, priority 2017, dated 2022) one finds IC50 data, which are given here for 25 molecules.

Holding throughout (type): cell-based
For one assay, the target named is human TLR9 (Homo sapiens (Human), UniProt Q9NR96). Description: TLR9 inhibition reporter assay (HEK-Blue, SEAP). As to conditions: HEK-Blue cells overexpressing human TLR9, ODN2006 5 nM stimulation. The gist of the method:
(§1)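 Percent inhibition of agonist-induced SEAP secretion was scored against DMSO-only and reference-inhibitor controls. Stimulation lasted 22 h at 37 °C following 30 min compound pre-exposure (0.05 nM–50 μM); ligands were gardiquimod 7.5 μM, R848 15.9 μM and ODN2006 5 nM for TLR7, 8 and 9.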
In general terms: A reporter such as luciferase makes a cellular process visible.

The target of another assay is human TLR8 (Homo sapiens (Human), UniProt Q9NR97). The assay can be described thus: TLR8 inhibition reporter assay (HEK-Blue, SEAP). Particulars: HEK-Blue cells overexpressing human TLR8, R848 15.9 μM stimulation. The procedure, abridged:
as §1

In the next assay the target is human TLR7 (Homo sapiens (Human), UniProt Q9NYK1). The assay can be described thus: TLR7 inhibition reporter assay (HEK-Blue, SEAP). Particulars: HEK-Blue cells overexpressing human TLR7, gardiquimod 7.5 μM stimulation. The procedure, abridged: as §1
Chain of human TLR7 (Q9NYK1 27-1049): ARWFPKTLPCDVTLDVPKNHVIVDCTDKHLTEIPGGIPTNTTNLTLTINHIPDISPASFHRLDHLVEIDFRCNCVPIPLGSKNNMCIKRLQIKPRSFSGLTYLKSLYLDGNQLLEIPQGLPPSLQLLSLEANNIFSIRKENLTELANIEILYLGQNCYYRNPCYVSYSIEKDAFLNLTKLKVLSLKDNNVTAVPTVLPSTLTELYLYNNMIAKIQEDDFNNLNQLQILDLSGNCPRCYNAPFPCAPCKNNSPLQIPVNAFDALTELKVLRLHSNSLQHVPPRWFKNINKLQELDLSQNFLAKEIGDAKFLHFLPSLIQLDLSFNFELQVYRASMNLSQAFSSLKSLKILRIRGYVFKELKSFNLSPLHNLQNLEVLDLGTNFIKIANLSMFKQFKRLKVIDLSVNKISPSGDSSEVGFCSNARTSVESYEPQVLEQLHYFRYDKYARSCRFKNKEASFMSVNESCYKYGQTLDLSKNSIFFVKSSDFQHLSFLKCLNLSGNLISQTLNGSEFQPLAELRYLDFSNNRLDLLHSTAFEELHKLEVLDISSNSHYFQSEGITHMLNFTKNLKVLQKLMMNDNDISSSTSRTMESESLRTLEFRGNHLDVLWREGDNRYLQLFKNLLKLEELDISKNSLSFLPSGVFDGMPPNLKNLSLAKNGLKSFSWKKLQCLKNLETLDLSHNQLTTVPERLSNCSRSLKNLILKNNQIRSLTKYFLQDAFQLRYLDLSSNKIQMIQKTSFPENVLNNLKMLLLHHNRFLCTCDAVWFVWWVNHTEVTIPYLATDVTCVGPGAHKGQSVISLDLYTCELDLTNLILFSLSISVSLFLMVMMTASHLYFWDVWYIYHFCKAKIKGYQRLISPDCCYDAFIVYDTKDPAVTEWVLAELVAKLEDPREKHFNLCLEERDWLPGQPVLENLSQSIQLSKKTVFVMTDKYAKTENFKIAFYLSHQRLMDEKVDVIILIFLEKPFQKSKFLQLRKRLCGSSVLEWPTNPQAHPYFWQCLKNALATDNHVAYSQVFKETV

Where only a bound is given, the exact number is not on record here.

The term IC50 denotes the point on the concentration scale where inhibition reaches its midpoint.

Chain of human TLR9 (Q9NR96 26-1032): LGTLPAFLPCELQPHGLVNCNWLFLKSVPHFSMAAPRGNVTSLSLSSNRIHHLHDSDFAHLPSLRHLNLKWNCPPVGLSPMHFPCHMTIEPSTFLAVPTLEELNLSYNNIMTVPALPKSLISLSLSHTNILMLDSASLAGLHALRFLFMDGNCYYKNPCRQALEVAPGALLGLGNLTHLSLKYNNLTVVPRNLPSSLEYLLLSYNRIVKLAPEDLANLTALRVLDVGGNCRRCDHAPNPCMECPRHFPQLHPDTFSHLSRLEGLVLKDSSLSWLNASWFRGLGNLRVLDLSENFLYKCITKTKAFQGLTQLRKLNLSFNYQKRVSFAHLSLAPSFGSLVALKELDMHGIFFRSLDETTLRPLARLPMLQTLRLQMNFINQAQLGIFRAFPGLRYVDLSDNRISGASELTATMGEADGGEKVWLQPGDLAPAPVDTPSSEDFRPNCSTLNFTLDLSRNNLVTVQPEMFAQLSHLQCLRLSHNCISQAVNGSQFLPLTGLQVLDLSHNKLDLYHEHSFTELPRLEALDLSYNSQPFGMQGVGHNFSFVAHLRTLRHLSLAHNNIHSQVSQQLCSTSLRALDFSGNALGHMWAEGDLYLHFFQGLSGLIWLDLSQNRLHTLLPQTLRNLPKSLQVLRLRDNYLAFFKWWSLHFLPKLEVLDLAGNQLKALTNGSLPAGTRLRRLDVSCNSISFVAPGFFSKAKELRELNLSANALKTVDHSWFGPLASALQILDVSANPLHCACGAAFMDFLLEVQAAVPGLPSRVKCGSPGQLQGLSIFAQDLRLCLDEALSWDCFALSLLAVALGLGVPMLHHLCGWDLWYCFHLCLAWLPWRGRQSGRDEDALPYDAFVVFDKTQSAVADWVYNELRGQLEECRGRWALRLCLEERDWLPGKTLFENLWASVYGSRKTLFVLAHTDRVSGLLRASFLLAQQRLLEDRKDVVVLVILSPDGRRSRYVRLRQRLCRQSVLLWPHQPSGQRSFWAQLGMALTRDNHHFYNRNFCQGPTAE
Chain of human TLR8 (Q9NR97 27-1041): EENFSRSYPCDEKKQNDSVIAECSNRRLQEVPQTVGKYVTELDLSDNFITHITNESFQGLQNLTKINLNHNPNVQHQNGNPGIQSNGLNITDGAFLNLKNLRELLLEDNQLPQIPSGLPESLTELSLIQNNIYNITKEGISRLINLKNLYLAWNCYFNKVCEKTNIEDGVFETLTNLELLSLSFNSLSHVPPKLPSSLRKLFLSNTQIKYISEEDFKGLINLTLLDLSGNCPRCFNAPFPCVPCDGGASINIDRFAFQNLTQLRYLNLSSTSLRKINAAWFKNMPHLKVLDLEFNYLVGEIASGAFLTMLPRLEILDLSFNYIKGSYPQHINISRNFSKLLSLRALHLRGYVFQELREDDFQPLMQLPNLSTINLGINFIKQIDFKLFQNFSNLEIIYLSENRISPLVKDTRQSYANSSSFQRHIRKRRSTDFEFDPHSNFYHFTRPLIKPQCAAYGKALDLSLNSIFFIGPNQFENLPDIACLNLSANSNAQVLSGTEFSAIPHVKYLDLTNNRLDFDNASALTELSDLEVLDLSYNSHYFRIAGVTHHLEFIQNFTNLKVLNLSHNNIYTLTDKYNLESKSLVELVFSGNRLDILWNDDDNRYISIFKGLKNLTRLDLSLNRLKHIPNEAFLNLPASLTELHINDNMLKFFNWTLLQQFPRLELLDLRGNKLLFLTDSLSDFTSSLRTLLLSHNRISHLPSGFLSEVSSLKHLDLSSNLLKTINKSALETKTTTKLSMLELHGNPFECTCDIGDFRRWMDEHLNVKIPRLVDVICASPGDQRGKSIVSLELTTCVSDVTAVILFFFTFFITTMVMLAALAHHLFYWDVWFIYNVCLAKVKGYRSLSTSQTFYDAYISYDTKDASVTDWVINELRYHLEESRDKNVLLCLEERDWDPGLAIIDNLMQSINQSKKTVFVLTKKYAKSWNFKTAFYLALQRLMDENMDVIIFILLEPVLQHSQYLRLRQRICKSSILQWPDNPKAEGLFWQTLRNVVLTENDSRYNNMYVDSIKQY

Take `CC(C)c1c(-c2ccnc3[nH]ncc23)[nH]c2ccc(-c3cccnc3)cc12` [Example 467, 4-(3-isopropyl-5-(pyridin-3-yl)-1H-indol-2-yl)-1H-pyrazolo[3,4-b]pyridine]: the IC50 was 24.2 µM on human TLR9, 18 nM on human TLR8 and 208 nM against human TLR7.

As to `CN[C@@H](C)c1nnc(-c2ccc3[nH]c(-c4ccc(OC)c(OC)c4)c(C(C)C)c3c2)o1` [Example 49, (S)-1-(5-(2-(3,4-dimethoxyphenyl)-3-isopropyl-1H-indol-5-yl)-1,3,4-oxadiazol-2-yl)-N-methylethan-1-amine], the IC50 on human TLR9 came out at 11.5 µM; on human TLR8, 11 nM; against human TLR7, 169 nM.

For `Cc1cc(-c2[nH]c3ccc(-c4ccc(CO)nc4)cc3c2C(C)C)cc(C)n1` [Example 322, (5-(2-(2,6-dimethylpyridin-4-yl)-3-isopropyl-1H-indol-5-yl)pyridin-2-yl)methanol], the IC50 at human TLR9 is 45.7 µM; on human TLR8, 27 nM; against human TLR7, 13 nM.

Consider `Cc1cc(-c2[nH]c3ccc(-c4nnc(Cc5c[nH]c6ccccc56)o4)cc3c2C(C)C)ccn1` [Example 73, 2-((1H-indol-3-yl)methyl)-5-(3-isopropyl-2-(2-methylpyridin-4-yl)-1H-indol-5-yl)-1,3,4-oxadiazole], for which the IC50 against human TLR9 was over 50 µM; on human TLR8 it was 1290 nM; at human TLR7, 2290 nM.

On to `Cc1cc(-c2[nH]c3ccc(-c4cc5c(s4)CN(CC(=O)N(C)C)CC5)cc3c2C(C)C)cc(C)n1` [Example 342, 2-(2-(2-(2,6-dimethylpyridin-4-yl)-3-isopropyl-1H-indol-5-yl)-4,7-dihydrothieno[2,3-c]pyridin-6(5H)-yl)-N,N-dimethylacetamide], for which the figures for the IC50 against human TLR9, against human TLR8 and on human TLR7 were 1.33 µM, 8.9 nM and 19 nM, respectively.

`Cc1cc(-c2[nH]c3ccc(-c4nn5c(c4C(N)=O)CNCC5)cc3c2C(C)C)ccn1` [Example 216, 2-(3-isopropyl-2-(2-methylpyridin-4-yl)-1H-indol-5-yl)-4,5,6,7-tetrahydropyrazolo[1,5-a]pyrazine-3-carboxamide]: the 50% inhibitory concentration (IC50) at human TLR9 worked out at 35 µM; at human TLR8, 6.9 nM; against human TLR7 it was 25 nM.

For the molecule `Cc1cc(-c2[nH]c3ccc(-c4ccc(N5CCN(C)CC5)nc4)cc3c2C(C)C)cc(C)n1` [Example 301, 2-(2,6-dimethylpyridin-4-yl)-3-isopropyl-5-(6-(4-methylpiperazin-1-yl)pyridin-3-yl)-1H-indole], the values for the IC50 at human TLR9, against human TLR8 and on human TLR7 were 0.432 µM, 3.6 nM and 5.2 nM, respectively.

Consider `COc1ccc(-c2[nH]c3ccc(-c4nnc(C5CCN(CC(=O)N(C)C)CC5)o4)cc3c2C(C)C)cc1OC` [Example 17, 2-(4-(5-(2-(3,4-dimethoxyphenyl)-3-isopropyl-1H-indol-5-yl)-1,3,4-oxadiazol-2-yl)piperidin-1-yl)-N,N-dimethylacetamide], for which the IC50 turned out to be 6.44 µM against human TLR9, 17 nM against human TLR8 and 108 nM on human TLR7.

Consider `Cc1cc(-c2[nH]c3ccc(-c4cc5c(s4)CN(C(=O)C4CC(=O)N(C)C4)CC5)cc3c2C(C)C)cc(C)n1` (stereo not drawn) [Example 352, 4-(2-(2-(2,6-dimethylpyridin-4-yl)-3-isopropyl-1H-indol-5-yl)-4,5,6,7-tetrahydrothieno[2,3-c]pyridine-6-carbonyl)-1-methylpyrrolidin-2-one], for which the IC50 against human TLR9 is 20.4 µM; against human TLR8 it was 49 nM; on human TLR7 it was 143 nM.

As to `COc1ccc(-c2[nH]c3ccc(-c4nnc(CN5CC6CNCC6C5)o4)cc3c2C(C)C)cc1OC` (stereo not drawn) [Example 107, 2-(2-(3,4-dimethoxyphenyl)-3-isopropyl-1H-indol-5-yl)-5-((hexahydropyrrolo[3,4-c]pyrrol-2(1H)-yl)methyl)-1,3,4-oxadiazole], the results for the IC50 against human TLR9, at human TLR8 and at human TLR7 were 2.21 µM, 23 nM and 228 nM, respectively.

Regarding `COc1ccc(-c2[nH]c3ccc(-c4ncc[nH]4)cc3c2C(C)C)cc1OC` [Example 165, 2-(3,4-dimethoxyphenyl)-5-(1H-imidazol-2-yl)-3-isopropyl-1H-indole], the IC50 at human TLR9 came to 6.69 µM; against human TLR8, 7.3 nM; against human TLR7 it was 93 nM.

Regarding `CC(C)c1c(-c2ccnc3[nH]ncc23)[nH]c2ccc(-c3nnc(C(=O)NCCN(C)C)s3)cc12` [Example 195, N-(2-(dimethylamino)ethyl)-5-(3-isopropyl-2-(1H-pyrazolo[3,4-b]pyridin-4-yl)-1H-indol-5-yl)-1,3,4-thiadiazole-2-carboxamide], the figures for the IC50 against human TLR9, against human TLR8 and against human TLR7 were 0.668 µM, 2.5 nM and 18 nM, respectively.

Turning to `Cc1cc(-c2[nH]c3ccc(-c4cc5c(s4)CN(C(=O)CS(C)(=O)=O)CC5)cc3c2C(C)C)cc(C)n1` [Example 353, 1-(2-(2-(2,6-dimethylpyridin-4-yl)-3-isopropyl-1H-indol-5-yl)-4,7-dihydrothieno[2,3-c]pyridin-6(5H)-yl)-2-(methylsulfonyl)ethan-1-one], the IC50 was over 50 µM against human TLR9, 39 nM at human TLR8 and 53 nM on human TLR7.

Regarding `Cc1cc(-c2[nH]c3ccc(-c4cc5c(s4)CNCC5)cc3c2C(C)C)cc(C)n1` [Example 324, 2-(2-(2,6-dimethylpyridin-4-yl)-3-isopropyl-1H-indol-5-yl)-4,5,6,7-tetrahydrothieno[2,3-c]pyridine], the results for the IC50 at human TLR9, against human TLR8 and against human TLR7 were 0.438 µM, 1.2 nM and 2.6 nM, respectively.

For the molecule `CCc1c(-c2ccc(OC)c(OC)c2)[nH]c2ccc(-c3ccc(N4CCNCC4)cc3)cc12` [Example 399, 2-(3,4-dimethoxyphenyl)-3-ethyl-5-(4-(piperazin-1-yl)phenyl)-1H-indole], the IC50 amounted to 0.721 µM at human TLR9, 28 nM on human TLR8 and 947 nM on human TLR7.

Regarding `CNc1ccc(-c2ccc3[nH]c(-c4ccnc(C)c4)c(C(C)C)c3c2)cn1` [Example 293, 5-(3-isopropyl-2-(2-methylpyridin-4-yl)-1H-indol-5-yl)-N-methylpyridin-2-amine], the IC50 on human TLR9 is 39.7 µM; against human TLR8 it was 9.8 nM; against human TLR7, 67 nM.

With `Cc1cc(-c2[nH]c3ccc(-c4nnc(C5CNCCO5)o4)cc3c2C(C)C)ccn1` (stereo not drawn) [Example 70, 2-(5-(3-isopropyl-2-(2-methylpyridin-4-yl)-1H-indol-5-yl)-1,3,4-oxadiazol-2-yl)morpholine], the IC50 is 5.04 µM on human TLR9, 6.7 nM against human TLR8 and 38 nM against human TLR7.

Regarding `CC(C)c1c(-c2ccnc3[nH]ncc23)[nH]c2ccc(-c3ccc4nccnc4c3)cc12` [Example 468, 6-(3-isopropyl-2-(1H-pyrazolo[3,4-b]pyridin-4-yl)-1H-indol-5-yl)quinoxaline], the values for the IC50 against human TLR9, on human TLR8 and against human TLR7 were 47.3 µM, 35 nM and 450 nM, respectively.

In the case of `Cc1cc(-c2[nH]c3ccc(-c4cc5c(s4)CN(C)CC5)cc3c2C(C)C)cc(C)n1` [Example 361, 2-(2-(2,6-dimethylpyridin-4-yl)-3-isopropyl-1H-indol-5-yl)-6-methyl-4,5,6,7-tetrahydrothieno[2,3-c]pyridine], the IC50 at human TLR9 is 0.49 µM; against human TLR8 it was 1.5 nM; against human TLR7, 6 nM.

Turning to `Cc1cc(-c2[nH]c3ccc(-c4ccc(N5CCN(CCO)CC5)nc4)cc3c2C(C)C)cc(C)n1` [Example 339, 2-(4-(5-(2-(2,6-dimethylpyridin-4-yl)-3-isopropyl-1H-indol-5-yl)pyridin-2-yl)piperazin-1-yl)ethan-1-ol], the 50% inhibitory concentration (IC50) on human TLR9 came out at 0.523 µM; at human TLR8 it was 5.4 nM; against human TLR7, 8.3 nM.

For `CNCC(=O)N1CCC(c2nnc(-c3ccc4[nH]c(-c5ccc(OC)c(OC)c5)c(C(C)C)c4c3)o2)CC1` [Example 18, 1-(4-(5-(2-(3,4-dimethoxyphenyl)-3-isopropyl-1H-indol-5-yl)-1,3,4-oxadiazol-2-yl)piperidin-1-yl)-2-(methylamino)ethan-1-one], the 50% inhibitory concentration (IC50) was found to be 0.625 µM against human TLR9, 9.5 nM at human TLR8 and 42 nM against human TLR7.

In the case of `Cc1cc(-c2[nH]c3ccc(-c4nc(C(=O)NCCCCN5CCCC5)co4)cc3c2C(C)C)cc(C)n1` [Example 285, 2-(2-(2,6-dimethylpyridin-4-yl)-3-isopropyl-1H-indol-5-yl)-N-(4-(pyrrolidin-1-yl)butyl)oxazole-4-carboxamide], the half-maximal inhibitory concentration (IC50) against human TLR9 was 0.466 µM; on human TLR8, 5.6 nM; against human TLR7, 8.6 nM.

As for `Cc1cc(-c2[nH]c3ccc(-c4nnc(C(C)CN)o4)cc3c2C(C)C)ccn1` (stereo not drawn) [Example 263, 2-(5-(3-isopropyl-2-(2-methylpyridin-4-yl)-1H-indol-5-yl)-1,3,4-oxadiazol-2-yl)propan-1-amine], the IC50 on human TLR9 stood at 0.869 µM; against human TLR8, 3.2 nM; against human TLR7 it was 50 nM.

Regarding `CCc1c(-c2ccc(OC)c(OC)c2)[nH]c2ccc(-c3noc([C@@H](N)CCCCN)n3)cc12` [Example 464, (S)-1-(3-(2-(3,4-dimethoxyphenyl)-3-ethyl-1H-indol-5-yl)-1,2,4-oxadiazol-5-yl)pentane-1,5-diamine], the half-maximal inhibitory concentration (IC50) at human TLR9 stood at 2.73 µM; at human TLR8 it was 183 nM; against human TLR7, 1650 nM.

As for `Cc1cc(-c2[nH]c3ccc(-c4nnc(C5CCN(CC(=O)N(C)C)CC5)[nH]4)cc3c2C(C)C)ccn1` [Example 185, 2-(4-(5-(3-isopropyl-2-(2-methylpyridin-4-yl)-1H-indol-5-yl)-4H-1,2,4-triazol-3-yl)piperidin-1-yl)-N,N-dimethylacetamide], the values for the IC50 against human TLR9, against human TLR8 and on human TLR7 were 7.59 µM, 3.3 nM and 84 nM, respectively.
